Experimental data published in PubChem BioAssay AID248 (DTP/NCI, 2004).
Where “and” joins values, the source holds several entries; their conditions need not be identical. Identical values can stand only once. Inconclusive results and toxic doses are left out.

Test system: L1210 leukemia ip in BDF1 mice, survival T/C
Test: NCI In Vivo Anticancer Drug Screen. Data for tumor model L1210 Leukemia (intraperitoneal) in B6D2F1 (BDF1) mice
Conditions: endpoint: mean survival time, higher = longer survival
Summary of the method: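 In this screen, tumor-bearing mice given compound are compared to those given vehicle, and their survival values are reported as a treated-to-control quotient.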

[1] = dose: 100.0 mg/kg/injection, schedule: Q04DX003 (ip), vehicle: Klucel (hydroxypropylcellulose) (HPC)
[2] = dose: 200.0 mg/kg/injection, schedule: Q04DX003 (ip), vehicle: Klucel (hydroxypropylcellulose) (HPC)
[3] = dose: 400.0 mg/kg/injection, schedule: Q04DX003 (ip), vehicle: Klucel (hydroxypropylcellulose) (HPC)
[4] = dose: 100.0 mg/kg/injection, schedule: Q01DX001 (ip), vehicle: carboxymethylcellulose (CMC)
[5] = dose: 100.0 mg/kg/injection, schedule: Q01DX009 (ip), vehicle: saline
[6] = dose: 100.0 mg/kg/injection, schedule: Q04DX003 (ip), vehicle: saline
[7] = dose: 200.0 mg/kg/injection, schedule: Q01DX001 (ip), vehicle: carboxymethylcellulose (CMC)
[8] = dose: 200.0 mg/kg/injection, schedule: Q01DX009 (ip), vehicle: saline
[9] = dose: 400.0 mg/kg/injection, schedule: Q01DX001 (ip), vehicle: carboxymethylcellulose (CMC)
[10] = dose: 50.0 mg/kg/injection, schedule: Q01DX009 (ip), vehicle: saline

O=C(O)C(Cc1cnc[nH]1)Nc1nc(NC(Cc2cnc[nH]2)C(=O)O)[nH]c(=O)n1 (configuration not stated)
T/C (dose: 6.25 mg/kg/injection, schedule: Q01DX009 (ip), vehicle: Klucel (hydroxypropylcellulose) (HPC)): 101 % of control
T/C (dose: 12.5 mg/kg/injection, schedule: Q01DX009 (ip), vehicle: Klucel (hydroxypropylcellulose) (HPC)): 108 % of control
T/C (dose: 25.0 mg/kg/injection, schedule: Q01DX009 (ip), vehicle: Klucel (hydroxypropylcellulose) (HPC)): 115 % of control

O=c1oc2ccccc2c2c1C(c1ccc3c(c1)OCO3)C=C(c1ccc3c(c1)OCO3)O2 (configuration not stated)
T/C (dose: 25.0 mg/kg/injection, schedule: Q01DX009 (ip), vehicle: water): 101 % of control
T/C (dose: 50.0 mg/kg/injection, schedule: Q01DX009 (ip), vehicle: water): 100 % of control
T/C (dose: 100.0 mg/kg/injection, schedule: Q01DX009 (ip), vehicle: water): 97 % of control
T/C (dose: 200.0 mg/kg/injection, schedule: Q01DX009 (ip), vehicle: water): 95 % of control
T/C (dose: 400.0 mg/kg/injection, schedule: Q01DX009 (ip), vehicle: water): 102 % of control

c1ccc(C2NC2(c2ccccc2)C2(c3ccccc3)SCCCS2)cc1 (configuration not stated)
T/C [1]: 111 % of control
T/C [2]: 103 % of control
T/C [3]: 105 % of control

O=C1c2cccnc2C(=O)N1Cc1ccccc1
T/C (dose: 100.0 mg/kg/injection, schedule: Q01DX009 (ip), vehicle: saline sonified): 103 % of control
T/C [1]: 107 % of control
T/C (dose: 200.0 mg/kg/injection, schedule: Q01DX009 (ip), vehicle: saline sonified): 96 % of control
T/C [2]: 103 % of control
T/C (dose: 400.0 mg/kg/injection, schedule: Q01DX009 (ip), vehicle: saline sonified): 102 % of control
T/C [3]: 102 % of control

CC(O)C(=O)SCc1ccccc1 (configuration not stated)
T/C (dose: 100.0 mg/kg/injection, schedule: Q04DX002 (ip), vehicle: saline with Tween-80): 95 % of control
T/C (dose: 200.0 mg/kg/injection, schedule: Q04DX002 (ip), vehicle: saline with Tween-80): 98 % of control
T/C (dose: 400.0 mg/kg/injection, schedule: Q04DX002 (ip), vehicle: saline with Tween-80): 92 % of control

O=C1NC(=O)C(c2ccccc2)(c2ccc(Cl)cc2Cl)N1 (configuration not stated)
T/C [4]: 100 % of control
T/C (dose: 100.0 mg/kg/injection, schedule: Q01DX001 (ip), vehicle: saline): 121 % of control
T/C [5]: 90 % of control
T/C [6]: 86 % of control
T/C [7]: 110 % of control
T/C (dose: 200.0 mg/kg/injection, schedule: Q01DX001 (ip), vehicle: saline): 97 % of control
T/C [8]: 87 % of control
T/C (dose: 200.0 mg/kg/injection, schedule: Q04DX003 (ip), vehicle: saline): 102 % of control
T/C [9]: 105 % of control
T/C (dose: 400.0 mg/kg/injection, schedule: Q01DX001 (ip), vehicle: saline): 95 % of control
T/C (dose: 400.0 mg/kg/injection, schedule: Q01DX009 (ip), vehicle: saline): 89 % of control
T/C (dose: 400.0 mg/kg/injection, schedule: Q04DX003 (ip), vehicle: saline): 93 % of control

COc1ccc(C(C)N=CC(C)(C)C)cc1 (configuration not stated)
T/C (dose: 100.0 mg/kg/injection, schedule: Q04DX003 (ip), vehicle: saline with Tween-80): 101 % of control
T/C (dose: 200.0 mg/kg/injection, schedule: Q04DX003 (ip), vehicle: saline with Tween-80): 101 % of control

Cc1sc2ccc(-c3ccccc3)cc2[n+]1C
T/C (dose: 75.0 mg/kg/injection, schedule: Q01DX001 (ip), vehicle: saline): 105 % of control
T/C (dose: 150.0 mg/kg/injection, schedule: Q01DX001 (ip), vehicle: saline): 102 % of control
T/C (dose: 300.0 mg/kg/injection, schedule: Q01DX001 (ip), vehicle: saline): 107 % of control

COC(=O)C(CCC(=O)OC(C)(C)C)NC(=O)C(F)(F)F (configuration not stated)
T/C (dose: 50.0 mg/kg/injection, schedule: Q01DX001 (ip), vehicle: Klucel (hydroxypropylcellulose) (HPC)): 94 % of control
T/C (dose: 100.0 mg/kg/injection, schedule: Q01DX001 (ip), vehicle: Klucel (hydroxypropylcellulose) (HPC)): 100 % of control
T/C (dose: 200.0 mg/kg/injection, schedule: Q01DX001 (ip), vehicle: Klucel (hydroxypropylcellulose) (HPC)): 97 % of control

CCCCCSP(=O)(SCCCCC)c1ccccc1
T/C (dose: 100.0 mg/kg/injection, schedule: Q01DX009 (ip), vehicle: Klucel (hydroxypropylcellulose) (HPC)): 91 % of control
T/C (dose: 200.0 mg/kg/injection, schedule: Q01DX009 (ip), vehicle: Klucel (hydroxypropylcellulose) (HPC)): 94 % of control

Nc1nc(Cl)c2[nH]cnc2n1
T/C (dose: 0.25 mg/kg/injection, schedule: Q01DX009 (ip), vehicle: saline with Tween-80): 110 % of control
T/C (dose: 0.5 mg/kg/injection, schedule: Q01DX009 (ip), vehicle: saline with Tween-80): 112 % of control
T/C (dose: 1.0 mg/kg/injection, schedule: Q01DX009 (ip), vehicle: saline with Tween-80): 117 % of control
T/C (dose: 6.0 mg/kg/injection, schedule: Q01DX009 (ip), vehicle: saline with Tween-80): 150 % of control
T/C (dose: 8.8 mg/kg/injection, schedule: Q04DX003 (ip), vehicle: saline with Tween-80): 112 % of control
T/C (dose: 13.0 mg/kg/injection, schedule: Q01DX009 (ip), vehicle: Klucel (hydroxypropylcellulose) (HPC)): 99 % of control
T/C (dose: 20.0 mg/kg/injection, schedule: Q01DX009 (ip), vehicle: Klucel (hydroxypropylcellulose) (HPC)): 101 % of control
T/C (dose: 30.0 mg/kg/injection, schedule: Q01DX009 (ip), vehicle: Klucel (hydroxypropylcellulose) (HPC)): 101 % of control
T/C (dose: 30.0 mg/kg/injection, schedule: Q04DX003 (ip), vehicle: saline with Tween-80): 195 % of control
T/C (dose: 37.5 mg/kg/injection, schedule: Q04DX009 (ip), vehicle: Klucel (hydroxypropylcellulose) (HPC)): 94 % of control
T/C (dose: 44.0 mg/kg/injection, schedule: Q01DX009 (ip), vehicle: Klucel (hydroxypropylcellulose) (HPC)): 100 % of control
T/C (dose: 50.0 mg/kg/injection, schedule: Q01DX009 (ip), vehicle: saline with Tween-80): 107 % of control
T/C (dose: 66.0 mg/kg/injection, schedule: Q01DX009 (ip), vehicle: Klucel (hydroxypropylcellulose) (HPC)): 104 % of control
T/C (dose: 75.0 mg/kg/injection, schedule: Q04DX009 (ip), vehicle: Klucel (hydroxypropylcellulose) (HPC)): 104 % of control
T/C (dose: 100.0 mg/kg/injection, schedule: Q01DX009 (ip), vehicle: saline with Tween-80): 124 % of control
T/C (dose: 150.0 mg/kg/injection, schedule: Q04DX009 (ip), vehicle: Klucel (hydroxypropylcellulose) (HPC)): 97 % of control

CN1OCC2CCCC(c3ccccc3)C21 (configuration not stated)
T/C [1]: 97 % of control
T/C [2]: 100 % of control

C[N+](C)(C)C1(Cc2ccccc2)c2ccccc2-c2ccc(Br)cc21 (configuration not stated)
T/C (dose: 25.0 mg/kg/injection, schedule: Q01DX009 (ip), vehicle: saline): 104 % of control
T/C (dose: 25.0 mg/kg/injection, schedule: Q04DX003 (ip), vehicle: saline): 102 % of control
T/C [10]: 95 % of control
T/C (dose: 50.0 mg/kg/injection, schedule: Q04DX003 (ip), vehicle: saline): 97 % of control
T/C [5]: 94 % of control
T/C [6]: 98 % of control and 100 % of control

OC1CCSC1 (configuration not stated)
T/C [10]: 95 % of control
T/C [5]: 95 % of control
T/C [8]: 98 % of control

Cc1ccc2c(ccc(/C=C/c3ccc(O)c4ncccc34)[n+]2C)c1
T/C (dose: 22.0 mg/kg/injection, schedule: Q01DX009 (ip), vehicle: Klucel (hydroxypropylcellulose) (HPC)): 115 % of control
T/C (dose: 33.0 mg/kg/injection, schedule: Q01DX009 (ip), vehicle: Klucel (hydroxypropylcellulose) (HPC)): 117 % of control
T/C [4]: 108 % of control
T/C [7]: 124 % of control
T/C [2]: 98 % of control
T/C [9]: 124 % of control

Cc1ccc(CN2C(=O)C=CC2=O)cc1
T/C (dose: 12.5 mg/kg/injection, schedule: Q04DX002 (ip), vehicle: Klucel (hydroxypropylcellulose) (HPC)): 102 % of control
T/C (dose: 25.0 mg/kg/injection, schedule: Q04DX002 (ip), vehicle: Klucel (hydroxypropylcellulose) (HPC)): 102 % of control
